Measured values as given in ChEMBL document CHEMBL5137050, “Hematopoietic Progenitor Kinase 1 in Tumor Immunology: A Medicinal Chemistry Perspective” (J Med Chem, 2022).
Blank lines part the entries; values can stand above or below the compound they belong to.

Key:
[1] = target: T1, Mitogen-activated protein kinase kinase kinase kinase 1 (Homo sapiens, UniProt Q92918); experiment: Inhibition of HPK1 (unknown origin) by ADP-Glo kinase assay
Target sequence in this assay (Q92918 whole entry): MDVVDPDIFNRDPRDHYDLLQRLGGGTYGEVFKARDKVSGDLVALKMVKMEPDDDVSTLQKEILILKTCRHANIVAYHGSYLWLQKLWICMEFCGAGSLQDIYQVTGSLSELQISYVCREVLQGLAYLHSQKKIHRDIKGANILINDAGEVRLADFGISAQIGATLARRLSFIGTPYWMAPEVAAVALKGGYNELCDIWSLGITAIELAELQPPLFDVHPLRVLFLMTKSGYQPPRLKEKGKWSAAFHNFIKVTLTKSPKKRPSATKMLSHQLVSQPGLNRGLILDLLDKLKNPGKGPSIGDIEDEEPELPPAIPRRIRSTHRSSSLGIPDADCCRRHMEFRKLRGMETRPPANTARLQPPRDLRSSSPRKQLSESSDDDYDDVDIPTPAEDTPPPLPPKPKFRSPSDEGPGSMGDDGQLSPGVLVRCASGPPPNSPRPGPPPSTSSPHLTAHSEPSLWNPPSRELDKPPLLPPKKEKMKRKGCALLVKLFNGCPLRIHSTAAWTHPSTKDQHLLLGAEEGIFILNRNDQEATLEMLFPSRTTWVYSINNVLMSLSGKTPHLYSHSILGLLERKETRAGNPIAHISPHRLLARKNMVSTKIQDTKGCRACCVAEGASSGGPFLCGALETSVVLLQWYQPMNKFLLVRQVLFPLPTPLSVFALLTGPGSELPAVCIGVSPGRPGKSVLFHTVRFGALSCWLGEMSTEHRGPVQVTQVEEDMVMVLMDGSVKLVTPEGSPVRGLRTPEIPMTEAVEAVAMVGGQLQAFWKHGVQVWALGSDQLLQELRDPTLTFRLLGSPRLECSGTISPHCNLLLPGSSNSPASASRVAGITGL

[2] = target: T1, Mitogen-activated protein kinase kinase kinase kinase 1; experiment: Inhibition of HPK1 (unknown origin) in presence of ATP
Target sequence in this assay (Q92918 whole entry): as above

[3] = target: T1, Mitogen-activated protein kinase kinase kinase kinase 1; experiment: Inhibition of HPK1 (unknown origin) assessed as inhibition constant by Lanthascreen binding assay
Target sequence in this assay (Q92918 whole entry): as above

[4] = target: T1, Mitogen-activated protein kinase kinase kinase kinase 1; experiment: Inhibition of HPK1 (unknown origin) by FRET assay
Target sequence in this assay (Q92918 whole entry): as above

[5] = target: T2, Protein cereblon/Mitogen-activated protein kinase kinase kinase kinase 1 (Homo sapiens) (UniProt Q92918+Q96SW2); experiment: PROTAC activity at CRBN/HPK1 (unknown origin) assessed as maximum degradation of HPK1 by cell based assay relative to control
T2 sequence (Q92918 whole entry, looked up): as the sequence (Q92918 whole entry) above
T2 sequence (Q96SW2 whole entry, looked up): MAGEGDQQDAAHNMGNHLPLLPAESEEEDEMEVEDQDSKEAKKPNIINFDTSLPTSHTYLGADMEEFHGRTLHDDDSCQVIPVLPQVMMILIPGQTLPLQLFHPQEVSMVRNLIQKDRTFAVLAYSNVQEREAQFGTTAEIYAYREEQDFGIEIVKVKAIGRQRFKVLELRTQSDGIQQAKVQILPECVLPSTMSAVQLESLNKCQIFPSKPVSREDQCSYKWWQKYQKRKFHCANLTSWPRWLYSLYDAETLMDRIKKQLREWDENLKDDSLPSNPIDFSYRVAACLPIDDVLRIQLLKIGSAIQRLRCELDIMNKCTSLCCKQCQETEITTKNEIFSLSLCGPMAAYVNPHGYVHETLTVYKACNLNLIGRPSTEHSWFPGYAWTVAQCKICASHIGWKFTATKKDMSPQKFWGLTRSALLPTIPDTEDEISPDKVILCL

[6] = target: T2, Protein cereblon/Mitogen-activated protein kinase kinase kinase kinase 1 (Homo sapiens); experiment: PROTAC activity at CRBN/HPK1 (unknown origin) assessed as maximum inhibition of SLP76 phosphorylation by cell based assay relative to control
[7] = target: T2, Protein cereblon/Mitogen-activated protein kinase kinase kinase kinase 1 (Homo sapiens); experiment: PROTAC activity at CRBN/HPK1 (unknown origin) assessed as degradation of HPK1 at 100 nM incubated for 12 hrs by cell based assay relative to control
[8] = target: T2, Protein cereblon/Mitogen-activated protein kinase kinase kinase kinase 1 (Homo sapiens); experiment: PROTAC activity at CRBN/HPK1 (unknown origin) assessed as degradation of HPK1 at 10 nM incubated for 12 hrs by cell based assay relative to control
[9] = target: T1, Mitogen-activated protein kinase kinase kinase kinase 1; experiment: Inhibition of HPK1 (1 to 346 residues) (unknown origin) assessed as inhibition constant by Lanthascreen binding assay
Target sequence in this assay (Q92918 whole entry): as the sequence (Q92918 whole entry) above

[10] = target: T1, Mitogen-activated protein kinase kinase kinase kinase 1; experiment: Inhibition of HPK1 (unknown origin) assessed as inhibition of SLP76 phosphorylation by HTRF assay
Target sequence in this assay (Q92918 whole entry): as above

[11] = target: T1, Mitogen-activated protein kinase kinase kinase kinase 1; experiment: Inhibition of HPK1 (unknown origin) assessed as inhibition of SLP76 phosphorylation at 0.3 to 1 uM relative to control; settings: dose 0.3-1 µM
Target sequence in this assay (Q92918 whole entry, looked up): as the sequence (Q92918 whole entry) above

[12] = target: T1, Mitogen-activated protein kinase kinase kinase kinase 1; experiment: Inhibition of HPK1 (unknown origin) in presence of ATP by ADP-Glo kinase assay
[13] = target: T1, Mitogen-activated protein kinase kinase kinase kinase 1; experiment: Inhibition of HPK1 (unknown origin) in presence of ATP by TR-FRET assay
[14] = target: T1, Mitogen-activated protein kinase kinase kinase kinase 1; experiment: Inhibition of HPK1 (unknown origin) by ELISA
[15] = target: T3, Receptor-type tyrosine-protein kinase FLT3 (Homo sapiens, UniProt P36888); experiment: Inhibition of FLT3 (unknown origin) by FRET assay
T3 sequence (P36888 whole entry): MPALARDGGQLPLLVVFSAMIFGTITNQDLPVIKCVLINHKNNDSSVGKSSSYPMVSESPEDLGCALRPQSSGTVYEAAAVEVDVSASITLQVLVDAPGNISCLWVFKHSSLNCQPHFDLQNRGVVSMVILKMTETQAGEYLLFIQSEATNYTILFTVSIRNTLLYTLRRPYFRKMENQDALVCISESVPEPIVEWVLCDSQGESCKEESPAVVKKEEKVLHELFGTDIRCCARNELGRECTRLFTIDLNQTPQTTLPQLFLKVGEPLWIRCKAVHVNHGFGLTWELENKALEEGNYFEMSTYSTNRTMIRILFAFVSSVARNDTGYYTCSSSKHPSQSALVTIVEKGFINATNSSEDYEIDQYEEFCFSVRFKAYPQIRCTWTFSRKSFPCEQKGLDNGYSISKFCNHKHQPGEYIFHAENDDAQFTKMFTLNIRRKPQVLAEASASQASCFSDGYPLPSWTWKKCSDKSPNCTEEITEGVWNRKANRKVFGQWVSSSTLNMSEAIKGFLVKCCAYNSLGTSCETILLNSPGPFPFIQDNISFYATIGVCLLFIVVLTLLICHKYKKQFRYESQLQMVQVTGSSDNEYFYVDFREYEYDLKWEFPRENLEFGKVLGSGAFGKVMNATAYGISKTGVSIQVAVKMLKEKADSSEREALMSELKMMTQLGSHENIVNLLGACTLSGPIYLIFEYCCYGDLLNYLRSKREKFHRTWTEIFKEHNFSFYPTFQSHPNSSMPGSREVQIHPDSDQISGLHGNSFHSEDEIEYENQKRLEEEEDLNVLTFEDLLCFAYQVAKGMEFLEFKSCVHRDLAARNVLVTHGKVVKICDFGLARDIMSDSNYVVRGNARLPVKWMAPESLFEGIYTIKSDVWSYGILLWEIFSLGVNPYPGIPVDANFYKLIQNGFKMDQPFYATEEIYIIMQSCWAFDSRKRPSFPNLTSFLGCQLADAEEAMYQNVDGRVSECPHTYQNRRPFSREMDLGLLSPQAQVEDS

[16] = target: Tyrosine-protein kinase Lck (Homo sapiens, UniProt P06239); experiment: Inhibition of LCK (unknown origin)
Tyrosine-protein kinase Lck, sequence (P06239 whole entry): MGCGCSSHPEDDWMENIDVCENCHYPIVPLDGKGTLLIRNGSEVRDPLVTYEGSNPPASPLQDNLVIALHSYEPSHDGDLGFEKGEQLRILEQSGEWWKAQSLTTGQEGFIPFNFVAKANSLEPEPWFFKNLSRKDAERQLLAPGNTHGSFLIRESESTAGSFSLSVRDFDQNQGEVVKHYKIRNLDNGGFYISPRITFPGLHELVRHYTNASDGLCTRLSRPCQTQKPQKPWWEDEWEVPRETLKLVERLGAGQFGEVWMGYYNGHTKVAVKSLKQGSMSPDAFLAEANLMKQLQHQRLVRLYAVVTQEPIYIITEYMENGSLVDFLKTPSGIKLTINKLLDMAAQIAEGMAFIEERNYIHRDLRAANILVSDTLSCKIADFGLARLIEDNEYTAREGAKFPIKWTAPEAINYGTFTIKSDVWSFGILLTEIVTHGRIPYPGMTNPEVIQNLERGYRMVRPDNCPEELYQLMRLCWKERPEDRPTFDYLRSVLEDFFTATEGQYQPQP

[17] = target: T1, Mitogen-activated protein kinase kinase kinase kinase 1; experiment: Inhibition of HPK1 (unknown origin) by TR-FRET assay
[18] = Cytotoxicity against HEK293 cells assessed as cell growth inhibition; format: toxicity, cell-based; settings: human
[19] = target: T1, Mitogen-activated protein kinase kinase kinase kinase 1; experiment: Inhibition of full-length HPK1 (unknown origin) assessed as inhibition constant in presence of ATP by HTRF assay
Interleukin-2 = Interleukin-2 (Homo sapiens, UniProt P60568); experiment: Inhibition of IL-2 (unknown origin)
Interleukin-2, sequence (P60568 whole entry): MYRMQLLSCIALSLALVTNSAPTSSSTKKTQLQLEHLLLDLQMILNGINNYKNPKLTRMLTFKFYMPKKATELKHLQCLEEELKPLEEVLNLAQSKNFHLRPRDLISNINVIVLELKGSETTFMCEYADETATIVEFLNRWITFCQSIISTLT

[20] = target: T1, Mitogen-activated protein kinase kinase kinase kinase 1; experiment: Inhibition of HPK1 in human PBMC assessed as inhibition of SLP76 phosphorylation incubated for 1 hr by ELISA; format: cell-based
[21] = target: T1, Mitogen-activated protein kinase kinase kinase kinase 1; experiment: Inhibition of N-terminal DYKDDDDK-tagged human HPK1 (1 to 346 residues) expressed in baculovirus expression system using SLP76 as substrate incubated for 1 hr in presence of ATP by TR-FRET assay
[22] = target: T1, Mitogen-activated protein kinase kinase kinase kinase 1; experiment: Inhibition of HPK1(unknown origin) assessed as inhibition of SLP76 phosphorylation by cell based assay
[23] = target: T1, Mitogen-activated protein kinase kinase kinase kinase 1; experiment: Binding affinity to HPK1 (unknown origin) assessed as dissociation constant by SPR analysis

- IC50 [1]: < 100 nM
Compound: COc1cc2c(cc1Nc1ncc(Cl)c(N3CC(CO)c4ccccc43)n1)CN(C)CC2 (configuration not stated)

- IC50 [2]: 5 nM
Compound: COc1cc2c(cc1Nc1ncc(C(F)(F)F)c(Nc3ccccc3P(C)(C)=O)n1)CN(C)CC2

- Ki [9]: 500 nM
Compound: COc1cccc(F)c1-c1cc2c(NCc3ccc(N4CCN(C)CC4)cc3)n[nH]c2cn1

- IC50 [2]: 100 nM
Compound: COc1cc2c(cc1Nc1ncc(Cl)c(Nc3ccccc3P(C)(C)=O)n1)CN(C)CCC2

- Ki [9]: ≤ 100 nM
Compound: COc1cccc(F)c1-n1cc2c(-c3ccc(N4CCN(C)CC4)cc3)n[nH]c2cc1=O

- IC50 [2]: 5 nM
Compound: CNC(=O)c1ccccc1Nc1nc(Nc2cc3c(cc2OC)CCN(C)C3)ncc1Cl

- IC50 [12]: ≤ 50 nM
Compound: COc1ccc(-c2c[nH]c3ncnc(Oc4c(F)cc(NC5=NCC(C)(CO)CO5)cc4F)c23)c(F)c1 (configuration not stated)

- IC50 [13]: 2.8 nM
Compound: Cc1cc(-c2cnc(N)c(OCc3ccnc(C#Cc4cccc(F)c4)c3)n2)cc2c1CCN(C)C2

- IC50 [2]: 10 nM
Compound: COc1cc2c(cc1Nc1ncc(Cl)c(Nc3ccccc3P(C)(C)=O)n1)CN(C)C2

- Ki [9]: ≤ 100 nM
Compound: COc1cccc(F)c1-c1ncc2[nH]nc(-c3ccc(N4CCN(C)CC4)cc3)c2n1

- IC50 [17]: 7.3 nM
Compound: CN(C)C(=O)c1ccc(-c2c[nH]c3ncc(-c4ccc5c(c4)CN([C@H]4CC[C@](C)(O)CC4)CC5)cc23)cc1

- IC50 [17]: 107 nM
Compound: CN(C)C(=O)c1ccc(-c2c[nH]c3ncc(-c4ccc5c(c4)CNCC5)cc23)cc1

- IC50 [17]: 11 nM
Compound: Cc1cc(-c2cnc3[nH]cc(-c4ccc(C(=O)N(C)C[C@H](C)O)cc4)c3n2)cc2c1CCN(CCN1CCOCC1)C2
- IC50 [18]: 1420 nM

- Ki [19]: 0.05 nM
Compound: Cc1c(N)cncc1-c1cc2cc(Nc3cc4n(n3)CC(=O)N(C(C)C)CC4)ncc2cc1F

- IC50 [2]: ≤ 5 nM
Compound: COc1cc2c(cc1Nc1ncc(Cl)c(Nc3ccccc3S(=O)(=O)C(C)C)n1)CN(C)CC2

- Ki [9]: ≤ 100 nM
Compound: COc1cccc(F)c1-c1cc2c(C(=O)Nc3ccc(N4CCN(C)CC4)cc3)n[nH]c2cn1

- IC50 [17]: 4.8 nM
Compound: Cc1cc(-c2cnc3[nH]cc(-c4ccc(C(=O)N5CC(N(C)C)C5)cc4)c3c2)cc(C)c1N1CCN(C2CCN(C)CC2)CC1

- IC50 [20]: 100 nM
- IC50 [21]: 0.334 nM
- IC50 [2]: < 5 nM
Compound: COc1cc2c(cc1Nc1ncc(Cl)c(Nc3ccccc3P(C)(C)=O)n1)CN(C)CC2

- IC50 [12]: ≤ 50 nM
Compound: COc1ccc(-c2c[nH]c3ncc(C#N)c(Oc4c(F)cc(NC5=NCC(C)(CO)CO5)cc4F)c23)c(F)c1 (configuration not stated)

- EC50 [22]: 149 nM
- IC50 [13]: 4 nM
- Kd [23]: 2.2 nM
Compound: Cn1cc(Nc2ncc(C3=CCC[C@@H](NC(=O)c4ccccc4)C3)nc2C(N)=O)cn1

- IC50 [2]: ≤ 5 nM
Compound: COc1cc2c(cc1Nc1ncc(Br)c(Nc3ccccc3P(C)(C)=O)n1)CN(C)CC2

- IC50 [17]: 8.2 nM
Compound: COCCN(C)C(=O)c1ccc(-c2c[nH]c3ncc(-c4ccc(N5CCN(C)CC5)cc4)nc23)cc1

- Ki [9]: ≤ 100 nM
Compound: COc1cccc(F)c1-c1ccc2[nH]nc(-c3ccc(N4CCN(C)CC4)cc3)c2n1

More lines, now with the values behind:

Compound: CCc1c(Cl)[nH]c2nc(C(=O)N(C)C)c(N)cc12
- Ki [3]: 0.9 nM

Compound: C/C(Nc1ccc(N2CCOCC2)cn1)=C1/C(=O)Nc2cnc(-c3cnccc3C)cc21
- IC50 [4]: < 50 nM

Compound: CC(C)(O)C#Cc1cccc(COc2cc(-c3cnc(C4CCN(C(=O)CCCCCCCCCOc5cccc6c5C(=O)N(C5CCC(=O)NC5=O)C6=O)CC4)s3)cnc2N)c1 (configuration not stated)
- Emax [5]: 62%
- Emax [6]: 81%
- Activity [7]: 75%
- Activity [8]: 15%

Compound: CCc1c(C)[nH]c2nc(C(=O)N(C)C)c(N)cc12
- Ki [3]: 15 nM

Compound: CNCc1nc(C2(C)CC2)cc2c1CN(c1cccc(N3C(=O)OC[C@@H]3C)n1)C2=O
- IC50 [10]: 730 nM

Compound: CN1CCN(c2ccc3nc(-c4c(N)c5ccsc5[nH]c4=O)[nH]c3c2)CC1
- inhibition [11]: > 75%

Compound: Cc1c(CC#N)ccnc1-c1cccc(-c2cnc3c(c2Cl)C2(CC[C@@](C)(C(N)=O)C2)CN3)c1F (some centres not stated)
- Ki [3]: 0.39 nM

Compound: CN1CCN(c2ccc3nc(-c4c(N)c5sccc5[nH]c4=O)[nH]c3c2)CC1
- IC50 [14]: 50 nM
- inhibition [11]: > 75%
- IC50 [15]: 50 nM
- IC50 [16]: 50 nM

Compound: Cc1c(CC#N)ccnc1-c1cc(N)cc(-c2cnc3c(c2Cl)[C@]2(CC[C@](C)(C#N)C2)CN3)c1
- Ki [3]: 0.9 nM

Compound: Cc1cc(-c2cnc3[nH]cc(-c4ccc(C(O)C5CCN(C)C5)cc4)c3c2)ccc1N1CCN(C)CC1 (configuration not stated)
- IC50 [17]: 4.5 nM

Compound: Cc1cc2cc(N)c(C(=O)N(C)C)nc2[nH]1
- Ki [3]: 1300 nM

Compound: CC(C)(O)C#Cc1cccc(COc2cc(-c3cnc(C4CCN(C(=O)CCOCCOCCOCCOCCOc5cccc6c5C(=O)N(C5CCC(=O)NC5=O)C6=O)CC4)s3)cnc2N)c1 (configuration not stated)
- Activity [7]: 68%
- Activity [8]: 72%

Compound: C[C@H]1CC(=O)c2ccc(Nc3cc4c([C@](C)(N)C5CC5)cnc(OC5CC5)c4cn3)cc2C12CC2
- EC50 (Interleukin-2): 9.4 nM
- IC50 [2]: 0.05 nM

Compound: CCN(CC)CCNC(=O)c1c[nH]c(/C=C2\C(=O)Nc3ccc(-c4c(F)cccc4OC)cc32)c1
- IC50 [4]: < 50 nM

Compound: CN1CCN(c2ccc3[nH]c(-c4c(N)c5ccsc5[nH]c4=O)nc3c2)CC1
- IC50 [14]: ≤ 50 nM
- IC50 [15]: ≤ 500 nM
- IC50 [16]: 50 nM

Compound: Cc1ccncc1-c1cc2cc(NC(=O)C=C3CC(C#N)C3)ncc2c(N)n1 (configuration not stated)
- IC50 [1]: < 0.01 nM

Compound: CC(C)n1cnnc1-c1cccc(N2Cc3c(cc(N4CCC[C@H]4C)nc3CN)C2=O)n1
- IC50 [10]: 22 nM

Compound: C[C@H]1COC(=O)N1c1cc(N)c2nnc(NC(=O)[C@@H]3C[C@H]3c3cnn(C)c3)cc2c1
- IC50 [1]: 1.9 nM

Compound: Cc1cc(CNCCO)cc(F)c1-c1cc2c(-c3cnn(C)c3)n[nH]c2cn1
- Ki [9]: ≤ 100 nM
